Experimental data published in patent US9822114B2, “Tricyclic oxazolidinone antibiotic compounds” (Idorsia Pharmaceuticals Ltd, priority 2008, dated 2017).

Tested on: M. catarrhalis A894
Experiment: Minimal inhibitory concentration (MIC), microdilution method in cation-adjusted Mueller-Hinton Broth (CLSI M7-A7)
Format: cell-based
Conditions: Moraxella catarrhalis, strain A894
Description: Minimal inhibitory concentrations (MICs; mg/1) were determined in cation-adjusted Mueller-Hinton Broth by a microdilution method following the description given in “Methods for Dilution Antimicrobial Susceptibility Tests for Bacteria that Grow Aerobically”, Approved standard, 7th ed., Clinical and Laboratory Standards Institute (CLSI) Document M7-A7, Wayne, Pa., USA, 2006.

SMILES: O=C1COc2ccc(N3C[C@@H](CNCC4Cn5c(=O)ccc6ncc(F)c4c65)OC3=O)cc2N1 (mixture of isomers) [Example 98, (RS)-3-fluoro-4-({[(R)-2-oxo-3-(3-oxo-3,4-dihydro-2H-benzo[1,4]oxazin-6-yl)-oxazolidin-5-ylmethyl]-amino}-methyl)-4,5-dihydro-pyrrolo[3,2,1-de][1,5]naphthyridin-7-one]
- MIC: 0.25 µg/mL

SMILES: O=C1CSc2ccc(N3C[C@@H](CCCN[C@H]4Cn5c(=O)ccc6ccc(F)c4c65)OC3=O)nc2N1 [Example 196, (R)-9-fluoro-1-{3-[(R)-2-oxo-3-(3-oxo-3,4-dihydro-2H-pyrido[3,2-b][1,4]thiazin-6-yl)-oxazolidin-5-yl]-propylamino}-1,2-dihydro-pyrrolo[3,2,1-ij]quinolin-4-one]
- MIC: ≤ 0.031 µg/mL

SMILES: CCOC(=O)c1ccc2c3c1ccc(=O)n3C[C@@H]2NCCC[C@H]1CN(c2ccc3c(c2)NC(=O)CS3)C(=O)O1 [Example 119, (R)-4-oxo-1-{3-[(S)-2-oxo-3-(3-oxo-3,4-dihydro-2H-benzo[1,4]thiazin-6-yl)-oxazolidin-5-yl]-propylamino}-1,2-dihydro-4H-pyrrolo[3,2,1-ij]quinoline-7-carboxylic acid ethyl ester]
- MIC: ≤ 0.031 µg/mL

SMILES: O=C1CSc2ccc(N3C[C@H](CCCN[C@@H]4Cn5c(=O)ccc6cccc4c65)OC3=O)cc2N1 [Example 85, (S)-1-{3-[(S)-2-oxo-3-(3-oxo-3,4-dihydro-2H-benzo[1,4]thiazin-6-yl)-oxazolidin-5-yl]-propylamino}-1,2-dihydro-pyrrolo[3,2,1-ij]quinolin-4-one]
- MIC: ≤ 0.031 µg/mL

SMILES: O=C1CSc2ccc(N3C[C@@H](CNCCC4Cn5c(=O)ccc6ccc(F)c4c65)OC3=O)cc2N1 (mixture of isomers) [Example 10, (1RS)-9-fluoro-1-(2-{[(R)-2-oxo-3-(3-oxo-3,4-dihydro-2H-benzo[1,4]thiazin-6-yl)-oxazolidin-5-ylmethyl]-amino}-ethyl)-1,2-dihydro-pyrrolo[3,2,1-ij]quinolin-4-one]
- MIC: ≤ 0.031 µg/mL

SMILES: O=C1CSc2ccc(N3C[C@@H](CCCN(CCO)[C@@H]4Cn5c(=O)cnc6ccc(F)c4c65)OC3=O)cc2N1 [Example 66, (S)-7-fluoro-6-((2-hydroxy-ethyl)-{3-[(R)-2-oxo-3-(3-oxo-3,4-dihydro-2H-benzo[1,4]thiazin-6-yl)-oxazolidin-5-yl]-propyl}-amino)-5,6-dihydro-pyrrolo[1,2,3-de]quinoxalin-3-one]
- MIC: ≤ 0.031 µg/mL

SMILES: O=C1O[C@@H](CCNCC2Cn3c(=O)ccc4ccc(F)c2c43)CN1c1ccc2c(c1)OCCO2 (mixture of isomers) [Example 60, (RS)-1-({2-[(S)-3-(2,3-dihydro-benzo[1,4]dioxin-6-yl)-2-oxo-oxazolidin-5-yl]-ethylamino}-methyl)-9-fluoro-1,2-dihydro-pyrrolo[3,2,1-ij]quinolin-4-one]
- MIC: ≤ 0.031 µg/mL

SMILES: O=C1O[C@H](CNCCC2Cn3c(=O)ccc4ccc(F)c2c43)CN1c1ccc2c(c1)OCCO2 (mixture of isomers) [Example 7, (1RS)-1-(2-{[(R)-3-(2,3-dihydro-benzo[1,4]dioxin-6-yl)-2-oxo-oxazolidin-5-ylmethyl]-amino}-ethyl)-9-fluoro-1,2-dihydro-pyrrolo[3,2,1-ij]quinolin-4-one]
- MIC: ≤ 0.031 µg/mL

SMILES: O=C1CSc2ccc(N3C[C@@H](CCCN[C@H]4Cn5c(=O)cnc6cccc4c65)OC3=O)cc2N1 [Example 64, (R)-6-{3-[(R)-2-oxo-3-(3-oxo-3,4-dihydro-2H-benzo[1,4]thiazin-6-yl)-oxazolidin-5-yl]-propylamino}-5,6-dihydro-pyrrolo[1,2,3-de]quinoxalin-3-one]
- MIC: ≤ 0.031 µg/mL

SMILES: O=C1CSc2ccc(N3C[C@@H](CNCC4Cn5c(=O)ccc6ccc(F)c4c65)OC3=O)cc2N1 (mixture of isomers) [Example 5, (1RS)-9-fluoro-1-({[(R)-2-oxo-3-(3-oxo-3,4-dihydro-2H-benzo[1,4]thiazin-6-yl)-oxazolidin-5-ylmethyl]-amino}-methyl)-1,2-dihydro-pyrrolo[3,2,1-ij]quinolin-4-one]
- MIC: ≤ 0.031 µg/mL

SMILES: O=C1COc2ccc(N3C[C@H](CCCN[C@H]4Cn5c(=O)ccc6cccc4c65)OC3=O)nc2N1 [Example 135, (R)-1-{3-[(S)-2-oxo-3-(3-oxo-3,4-dihydro-2H-pyrido[3,2-b][1,4]oxazin-6-yl)-oxazolidin-5-yl]-propylamino}-1,2-dihydro-pyrrolo[3,2,1-ij]quinolin-4-one]
- MIC: ≤ 0.031 µg/mL

SMILES: O=C1COc2ccc(N3C[C@H](CCCN[C@@H]4Cn5c(=O)ccc6ccc(F)c4c65)OC3=O)nc2N1 [Example 189, (S)-9-fluoro-1-{3-[(S)-2-oxo-3-(3-oxo-3,4-dihydro-2H-pyrido[3,2-b][1,4]oxazin-6-yl)-oxazolidin-5-yl]-propylamino}-1,2-dihydro-pyrrolo[3,2,1-ij]quinolin-4-one]
- MIC: ≤ 0.031 µg/mL

SMILES: NC[C@H]1[C@H](NCCC[C@@H]2CN(c3ccc4c(c3)NC(=O)CS4)C(=O)O2)c2c(F)ccc3ccc(=O)n1c23 (relative stereo) [Example 188, (1R*,2S*)-2-aminomethyl-9-fluoro-1-{3-[(R)-2-oxo-3-(3-oxo-3,4-dihydro-2H-benzo[1,4]thiazin-6-yl)-oxazolidin-5-yl]-propylamino}-1,2-dihydro-pyrrolo[3,2,1-ij]quinolin-4-one]
- MIC: ≤ 0.031 µg/mL

SMILES: O=C1COc2ccc(N3C[C@@H](CNCCC4Cn5c(=O)ccc6ccc(F)c4c65)OC3=O)cc2N1 (mixture of isomers) [Example 9, (1RS)-9-fluoro-1-(2-{[(R)-2-oxo-3-(3-oxo-3,4-dihydro-2H-benzo[1,4]oxazin-6-yl)-oxazolidin-5-ylmethyl]-amino}-ethyl)-1,2-dihydro-pyrrolo[3,2,1-ij]quinolin-4-one]
- MIC: ≤ 0.031 µg/mL

SMILES: O=C1CSc2ccc(N3C[C@@H](CCNC[C@@H]4Cn5c(=O)ccc6nccc4c65)OC3=O)cc2N1 [Example 15, (4R)-4-({2-[(R)-2-oxo-3-(3-oxo-3,4-dihydro-2H-benzo[1,4]thiazin-6-yl)-oxazolidin-5-yl]-ethylamino}-methyl)-4,5-dihydro-pyrrolo[3,2,1-de][1,5]naphthyridin-7-one]
- MIC: ≤ 0.031 µg/mL

SMILES: O=C1COc2ccc(N3C[C@@H](CCNCC4Cn5c(=O)ccc6ccc(F)c4c65)OC3=O)cc2N1 (mixture of isomers) [Example 2, (1RS)-9-fluoro-1-({2-[(R)-2-oxo-3-(3-oxo-3,4-dihydro-2H-benzo[1,4]oxazin-6-yl)-oxazolidin-5-yl]-ethylamino}-methyl)-1,2-dihydro-pyrrolo[3,2,1-ij]quinolin-4-one]
- MIC: ≤ 0.031 µg/mL

SMILES: O=C1CSc2ccc(N3C[C@H](CCNCC4Cn5c(=O)ccc6ccc(F)c4c65)OC3=O)cc2N1 (mixture of isomers) [Example 4, (1RS)-9-fluoro-1-({2-[(S)-2-oxo-3-(3-oxo-3,4-dihydro-2H-benzo[1,4]thiazin-6-yl)-oxazolidin-5-yl]-ethylamino}-methyl)-1,2-dihydro-pyrrolo[3,2,1-ij]quinolin-4-one]
- MIC: ≤ 0.031 µg/mL

SMILES: O=C1CSc2ccc(N3C[C@@H](CN(CCO)CCC4Cn5c(=O)ccc6ccc(F)c4c65)OC3=O)cc2N1 (mixture of isomers) [Example 69, (RS)-9-fluoro-1-(2-{(2-hydroxy-ethyl)-[(R)-2-oxo-3-(3-oxo-3,4-dihydro-2H-benzo[1,4]thiazin-6-yl)-oxazolidin-5-ylmethyl]-amino}-ethyl)-1,2-dihydro-pyrrolo[3,2,1-ij]quinolin-4-one]
- MIC: ≤ 0.031 µg/mL
